Source: patent US20190202836A1, “SELECTIVE DUAL INHIBITORS OF PI3 DELTA AND GAMMA PROTEIN KINASES” (Rhizen Pharmaceuticals SA, priority 2014, published 2019)
pIC50: −log10 of the molar value.

Experiments:
[1] = Metabolic stability in mouse liver microsomes; format: in vitro ADME; details: 1 μM test item, 60 minutes, 37° C., NADPH
Procedure: Metabolic stability studies were conducted on Compounds A, A1, and A2 as well as Example 128 of WO 2012/151525 using mouse, rat, dog, monkey, and human liver microsomes. The protocol for the studies with mouse, rat, and human liver microsomes (all from BD Gentest, USA) is provided below. 0.4 mg protein was preincubated with 2 mM NADPH (cofactor) in phosphate buffer (pH-7.4) for 15 minutes at 37° C. and then added with 1 μM test item and incubated further for 60 minutes in triplicate. The reaction mixture was terminated with methanol containing an internal standard and centrifuged further to analyze the test item remaining in the supernatant by LC-MS/MS. The percent parent compound remaining was calculated in comparison with similar samples terminated at 0 minutes.

[2] = Metabolic stability in dog liver microsomes; format: in vitro ADME
PI3Kδ = PI3Kδ (Homo sapiens, UniProt O00329); experiment: Assay 1: Fluorescent (HTRF) determination of PI3 kinase enzyme activity, PI3Kδ; format: biochemical
Text: (§1) Phosphoinositide 3 kinases (PI3K) belong to a class of lipid kinases that play a critical role in the regulation of several key cellular processes. The PI3K are capable of phosphorylating the 3-hydroxy position of phosphoinositols thereby generating second messengers involved in downstream signaling events. The homogenous time resolved fluorescence (HTRF) assay allows detection of 3,4,5-triphosphate (PIPS) formed as a result of phosphorylation of phosphotidylinositol 4,5-biphosphate (PIP2) by PI3K isoforms such as α, β, γ or δ.
(§2) PI3K isoform activity for α, β, γ or δ was determined using a PI3K human HTRF™ Assay Kit (Millipore, Billerica, Mass.) with modifications. All incubations were carried out at room temperature. 0.5 μl of 40× inhibitor (in 100% DMSO) or 100% DMSO were added to each well of a 384-well white plate (Greiner Bio-One, Monroe, N.C.) containing 14.5 μl 1× reaction buffer/PIP2 (10 mM MgCl2, 5 mM DTT, 1.38 μM PIP2) mix with or without enzyme, followed by 5 μl/well of 400 μM ATP and incubated for an additional 30 minutes. The reaction was terminated by adding 5 μl/well stop solution (Millipore, Billerica, Mass.). 5 μl of detection mix (Millipore, Billerica, Mass.) was then added to each well and incubated for 6-18 hours in the dark. HRTF ratio was measured on a microplate reader (BMG Labtech., Germany) at an excitation wavelength of 337 nm and emission wavelengths of 665 and 615 nm with an integration time of 400 msec counting delay of 50 msec.

PI3Kα = PI3Kα (Homo sapiens, UniProt P42336); experiment: Assay 1: Fluorescent (HTRF) determination of PI3 kinase enzyme activity, PI3Kα; format: biochemical
Text: as §1, §2

male Balb/c mice = experiment: Assay 13: Imiquimod induced plaque psoriasis in Balb/c mice model; format: in vivo; details: imiquimod induced psoriasis, 3, 10, 30 mg/kg oral, compared to the control group
Procedure: Imiquimod (IMQ) is a ligand for TLR7 and TLR8, originally used for the treatment of non-melanoma skin cancers. […] Animals (male Balb/c mice) were acclimatized for seven days prior to the start of the experiment. Animals were randomly distributed to various groups based on their body weights. On day 0, the back skin of the mice was shaved by topical application of hair removal cream. On day 1, mice were administered the test compound or vehicle by the oral route and after 1 hour the […] received a topical application of 62.5 mg of commercially available IMQ cream (5%; Beselna Cream; Mochida Pharmaceuticals, Tokyo, Japan) on the shaved back skin. The mice were treated with topical application of imiquimod for the next 5 consecutive days, one hour after test compound or vehicle administration. Animals were allowed to dry for one hour before returning to their cages after topical application on every day. Four hours after the final application of IMQ cream, the mice were killed and skin samples were obtained. Back skin thickness was measured using dial thickness gauge. After measuring skin thickness, skin samples were fixed in 10% neutral buffered formalin solution and embedded in paraffin. Deparaffinised sections were stained with hematoxylin-eosin (HE). Epidermal thickness was quantified by averaging the values of five independent fields per section. To score the severity of inflammation of the back skin, an objective scoring system was used based on the human clinical Psoriasis Area and Severity Index (PASI). Erythema, scaling, and thickening were scored independently on a scale from 0 to 4: 0=none; 1=slight; 2=moderate; 3=marked; and 4=very marked.

PI3Kγ = PI3Kγ (Homo sapiens, UniProt P48736); experiment: Assay 4: fMLP induced CD63 expression in basophils from human whole blood; format: cell-based; design: endogenous in cells; host or cells: basophils in human whole blood; details: n=1, read-out: IC50 for fMLP (PI3K γ), CD63 positive basophils
Procedure: PI3K δ and γ signaling in basophils manifested by an alteration of anti-FcεR1 or fMLP induced CD63 expression is a useful pharmacodynamic marker determined using the Flow2CAST® kit (Buhlmann Laboratories, Switzerland). The test procedure involves the following steps: • Mix the anti-coagulated blood sample by inverting the venipuncture tube several times; • Prepare fresh and pyrogen-free 3.5 ml polypropylene or polystyrene tubes suitable for Flow Cytometry measurements; • Add 49 μl of patient's whole blood to each tube; • Add 1 μl of 10% DMSO (background) or test compound (10% DMSO) to the assigned tubes and mix gently. Incubate at room temperature for 15 minutes; • Pipet 50 μl of the Stimulation buffer (background) or anti-FcεRI Ab or fMLP to each tube; • Add 100 μl of Stimulation Buffer to each tube; • Mix gently. Add 20 μl Staining Reagent (1:1 mix of FITC-CD63 and PE-CCR3) to each tube; • Mix gently, cover the tubes and incubate for 15 minutes at 37° C. in a water bath. […]
Percent CD63 positive cells within the gated basophil population were determined in different treatment groups and normalized to vehicle control.

PI3Kα, sequence (P42336 whole entry): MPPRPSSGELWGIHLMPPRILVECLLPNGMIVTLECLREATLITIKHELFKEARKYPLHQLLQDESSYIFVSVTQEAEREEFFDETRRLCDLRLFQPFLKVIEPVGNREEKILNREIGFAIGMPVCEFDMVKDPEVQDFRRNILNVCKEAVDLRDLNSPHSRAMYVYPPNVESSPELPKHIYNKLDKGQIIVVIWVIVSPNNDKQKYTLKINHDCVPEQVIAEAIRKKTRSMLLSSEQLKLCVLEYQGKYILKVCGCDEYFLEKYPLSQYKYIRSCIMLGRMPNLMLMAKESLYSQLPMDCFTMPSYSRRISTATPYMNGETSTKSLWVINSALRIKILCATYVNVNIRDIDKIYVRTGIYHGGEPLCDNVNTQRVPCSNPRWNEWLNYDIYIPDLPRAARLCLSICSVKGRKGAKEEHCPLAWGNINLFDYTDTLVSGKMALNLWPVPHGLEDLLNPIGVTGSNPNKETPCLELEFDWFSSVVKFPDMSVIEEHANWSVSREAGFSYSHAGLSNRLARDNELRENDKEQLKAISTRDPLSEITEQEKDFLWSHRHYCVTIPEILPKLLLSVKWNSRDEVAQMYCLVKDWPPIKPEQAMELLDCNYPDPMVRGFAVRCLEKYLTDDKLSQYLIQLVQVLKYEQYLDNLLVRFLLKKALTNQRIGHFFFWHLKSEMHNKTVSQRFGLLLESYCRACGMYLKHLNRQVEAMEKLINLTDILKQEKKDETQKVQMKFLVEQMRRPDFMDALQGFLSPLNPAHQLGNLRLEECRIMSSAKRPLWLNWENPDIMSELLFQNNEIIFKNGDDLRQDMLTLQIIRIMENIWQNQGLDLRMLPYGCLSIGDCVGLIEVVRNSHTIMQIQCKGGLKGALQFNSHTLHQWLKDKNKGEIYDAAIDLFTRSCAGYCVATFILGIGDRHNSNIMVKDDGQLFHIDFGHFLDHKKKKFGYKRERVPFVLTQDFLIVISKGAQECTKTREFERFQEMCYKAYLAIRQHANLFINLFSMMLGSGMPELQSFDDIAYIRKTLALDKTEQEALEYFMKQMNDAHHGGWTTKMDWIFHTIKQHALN
PI3Kα, sequence (P27986 whole entry partner): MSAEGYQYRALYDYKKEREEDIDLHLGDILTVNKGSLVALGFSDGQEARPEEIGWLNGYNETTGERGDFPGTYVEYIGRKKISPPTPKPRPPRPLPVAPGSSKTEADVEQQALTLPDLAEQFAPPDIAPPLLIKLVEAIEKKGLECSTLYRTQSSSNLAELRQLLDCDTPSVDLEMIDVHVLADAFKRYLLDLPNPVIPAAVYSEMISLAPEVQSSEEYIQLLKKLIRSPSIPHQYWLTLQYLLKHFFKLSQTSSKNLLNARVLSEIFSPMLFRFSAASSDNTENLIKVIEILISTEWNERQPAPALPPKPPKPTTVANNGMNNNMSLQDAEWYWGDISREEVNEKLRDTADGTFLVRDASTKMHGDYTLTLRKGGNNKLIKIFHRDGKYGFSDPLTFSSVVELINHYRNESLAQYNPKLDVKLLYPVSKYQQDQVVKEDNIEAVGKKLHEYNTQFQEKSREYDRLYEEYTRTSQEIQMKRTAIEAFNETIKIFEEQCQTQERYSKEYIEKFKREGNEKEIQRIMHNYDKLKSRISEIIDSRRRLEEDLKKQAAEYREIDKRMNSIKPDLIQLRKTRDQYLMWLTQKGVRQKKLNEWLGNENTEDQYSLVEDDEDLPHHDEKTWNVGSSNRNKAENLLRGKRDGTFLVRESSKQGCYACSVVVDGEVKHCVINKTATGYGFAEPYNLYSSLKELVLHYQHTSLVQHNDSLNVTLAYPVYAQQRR
PI3Kγ, sequence (P48736 whole entry): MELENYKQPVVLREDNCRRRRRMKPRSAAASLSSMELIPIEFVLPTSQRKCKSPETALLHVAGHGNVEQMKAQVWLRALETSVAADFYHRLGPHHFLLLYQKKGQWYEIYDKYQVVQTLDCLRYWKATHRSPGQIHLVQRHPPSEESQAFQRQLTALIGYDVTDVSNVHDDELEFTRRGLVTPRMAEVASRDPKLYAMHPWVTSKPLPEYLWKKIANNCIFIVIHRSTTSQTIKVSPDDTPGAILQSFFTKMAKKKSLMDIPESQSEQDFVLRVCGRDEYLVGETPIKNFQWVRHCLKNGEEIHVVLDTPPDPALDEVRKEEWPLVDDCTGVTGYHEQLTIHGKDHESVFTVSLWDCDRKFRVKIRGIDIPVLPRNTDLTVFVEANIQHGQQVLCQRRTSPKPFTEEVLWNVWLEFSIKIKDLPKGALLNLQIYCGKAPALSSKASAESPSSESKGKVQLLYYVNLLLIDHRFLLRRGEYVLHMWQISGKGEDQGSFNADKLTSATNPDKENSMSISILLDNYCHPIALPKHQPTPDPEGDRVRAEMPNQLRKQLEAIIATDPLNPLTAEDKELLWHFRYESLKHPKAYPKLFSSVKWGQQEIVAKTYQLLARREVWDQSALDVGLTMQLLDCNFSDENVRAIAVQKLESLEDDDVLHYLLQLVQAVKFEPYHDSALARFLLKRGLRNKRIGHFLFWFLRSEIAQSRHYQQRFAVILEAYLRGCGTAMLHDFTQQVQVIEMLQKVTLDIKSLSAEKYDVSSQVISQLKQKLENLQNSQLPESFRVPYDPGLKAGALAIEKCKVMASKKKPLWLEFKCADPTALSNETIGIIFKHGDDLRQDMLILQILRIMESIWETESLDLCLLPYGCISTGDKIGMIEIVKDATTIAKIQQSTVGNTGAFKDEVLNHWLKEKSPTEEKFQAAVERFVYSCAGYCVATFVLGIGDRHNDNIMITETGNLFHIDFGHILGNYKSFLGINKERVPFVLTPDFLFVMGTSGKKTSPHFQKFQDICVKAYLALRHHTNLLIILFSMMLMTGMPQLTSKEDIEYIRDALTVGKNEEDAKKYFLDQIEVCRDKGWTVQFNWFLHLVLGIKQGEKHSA
PI3Kδ, sequence (O00329 whole entry, canonical isoform): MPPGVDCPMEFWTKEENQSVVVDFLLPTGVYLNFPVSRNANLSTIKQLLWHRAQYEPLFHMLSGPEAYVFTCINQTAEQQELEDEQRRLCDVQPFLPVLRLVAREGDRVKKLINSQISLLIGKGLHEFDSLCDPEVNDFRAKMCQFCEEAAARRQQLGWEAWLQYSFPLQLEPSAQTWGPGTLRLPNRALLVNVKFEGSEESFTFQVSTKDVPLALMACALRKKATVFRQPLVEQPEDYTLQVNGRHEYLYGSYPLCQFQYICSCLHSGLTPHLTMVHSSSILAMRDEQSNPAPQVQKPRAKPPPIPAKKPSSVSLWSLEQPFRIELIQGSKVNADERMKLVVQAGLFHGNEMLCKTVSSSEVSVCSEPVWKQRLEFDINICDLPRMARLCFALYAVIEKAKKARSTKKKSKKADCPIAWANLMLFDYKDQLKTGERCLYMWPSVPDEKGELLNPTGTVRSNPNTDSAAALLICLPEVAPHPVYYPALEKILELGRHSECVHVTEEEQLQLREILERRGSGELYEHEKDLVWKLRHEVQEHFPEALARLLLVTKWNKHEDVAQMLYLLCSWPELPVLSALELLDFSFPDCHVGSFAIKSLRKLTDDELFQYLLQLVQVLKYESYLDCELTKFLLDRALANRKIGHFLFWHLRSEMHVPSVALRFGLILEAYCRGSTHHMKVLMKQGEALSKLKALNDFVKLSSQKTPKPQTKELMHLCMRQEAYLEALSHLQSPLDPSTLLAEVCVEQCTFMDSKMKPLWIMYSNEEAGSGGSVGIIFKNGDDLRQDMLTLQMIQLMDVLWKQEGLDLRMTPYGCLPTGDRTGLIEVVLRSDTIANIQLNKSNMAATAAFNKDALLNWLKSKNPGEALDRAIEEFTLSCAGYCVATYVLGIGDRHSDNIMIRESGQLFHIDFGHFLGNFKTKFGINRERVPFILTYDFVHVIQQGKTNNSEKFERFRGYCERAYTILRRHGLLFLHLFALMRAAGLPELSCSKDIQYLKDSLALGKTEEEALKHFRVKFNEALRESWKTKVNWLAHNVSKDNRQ
PI3Kδ, sequence (P27986 whole entry partner, canonical isoform): as the sequence (P27986 whole entry partner) above

Metabolic stability in liver microsomes (percent parent compound remaining), Mouse [1]: 85.9%
Metabolic stability in liver microsomes (percent parent compound remaining), Dog [2]: 83.5%
IC50 (PI3Kδ): 30.5 nM
inhibition at 10 µM (PI3Kα): 23%
IC50 (PI3Kα; HTRF enzyme assay): > 10000 nM
Fold-Selectivity PI3Kα (PI3Kα; selectivity profile, enzyme IC50): >329 fold
pIC50 (PI3Kγ): > 7.15
Compound: COc1ccc(-c2nn([C@@H](C)c3oc4cccc(F)c4c(=O)c3-c3cccc(F)c3)c3ncnc(N)c23)cc1NS(C)(=O)=O [Compound A1, (S)—N-(5-(4-amino-1-(1-(5-fluoro-3-(3-fluorophenyl)-4-oxo-4H-chromen-2-yl)ethyl)-1H-pyrazolo[3,4-d]pyrimidin-3-yl)-2-methoxyphenyl)methanesulfonamide]
back skin thickness (male Balb/c mice): reduced
erythema (male Balb/c mice): reduced
scaling (male Balb/c mice): reduced
